According to patent US5264433A, “Benzodiazepine derivatives” (Fujisawa Pharmaceutical Co., Ltd., priority 1988, dated 1993):

Assays:
CCK receptor = CCK receptor antagonism in isolated fundic circular muscle from guinea pig stomach; conditions: test compound 1×10^-5 M added 5 minutes before CCK-8 (3.2×10^-7 M); isolated circular muscle strip
Experimental: CCK receptor antagonism in isolated fundic circular muscle from guinea pig stomach
The strip of circular muscle suspended in 25 ml organ bath containing Kreb's bicarbonate solution (NaCl 118 mM, KCl 4.8 mM, KH2 PO4 1.2 mM, MgSO4 1.2 mM, CaCl2 2.5 mM, NaHCO3 25 mM, glucose 11 mM and bovine serum albumin 0.1%) maintained at 37° C. and gassed with 95% O2 and 5% CO2.
The strip was placed under an initial tension of 0.5 g and equilibrated for 60 minutes during which the bath volume was replaced every 15 minutes. Isometric contraction was measured using a force transducer. CCK-8 (3.2×10^-7 M) was added to the bathing solution and the contractile force was measured. After washing out CCK-8, test compound A (1×10^-5 M) was added. 5 minutes later, CCK-8 was added and the contractile force was measured. CCK antagonism was calculated by comparing the contractile force induced by CCK in the absence or presence of test compound A.

CCK-A receptor = CCK-A receptor antagonist selectivity (statement only, no method); conditions: statement in words, no data

| SMILES | Inhibition (%) of CCK-induced contractile force (CCK receptor) [%] | CCK-A receptor antagonist selectivity (CCK-A receptor) |
| --- | --- | --- |
| O=C(NC1N=C(c2ccccc2)c2ccccc2N(CCO)C1=O)c1cc2ccccc2[nH]1 (racemic) [test compound A, (3RS)-1,3-Dihydro-1-(2-hydroxyethyl)-3-(2-indolylcarbonylamino)-5-phenyl-2H-1,4-benzodiazepine-2-one] | 91 |  |
| O=C(N[C@H]1N=C(c2ccccc2)c2ccccc2N(Cc2nnn[nH]2)C1=O)c1cc2ccccc2[nH]1 [Example 42, (3S)-1,3-dihydro-3-(2-indolylcarbonylamino)-5-phenyl-1-[(1 H-tetrazol-5-yl)-methyl]-2H-1,4-benzodiazepin-2-one] |  | selective CCK-A receptor antagonist |
